The source of these data is patent US20050130968A1, “Fungicidal 4-(2-aminopyridin-4-yl)-N-phenyl-1,3,5-triazin-2-amine derivatives” (priority 2003, published 2005).

Structures are written as SMILES.

One data set deals with Cochliobolus sativus. The data set is described as follows: Spot Blotch of Wheat 1-day protectant test (COCHSA). Particulars: Bipolaris sorokiniana, 24 h; one-day protectant test, 200 ppm application rate, wheat plants (variety Yuma); read-out: COCHSA control of disease. Format: in vivo. The method, then: The technical compounds were formulated at 200 ppm in 10 vol. acetone plus 90 vol. Triton X water (deionized water 99.99 wt. % +0.01 wt. Triton X100), giving a “formulated test compound.” The compounds were tested for ability to control plant diseases at the whole plant level in a 1-day protectant test (IDP). Formulated test compounds were applied to plants using a turn table sprayer fitted with two opposing air atomization nozzles which delivered approximately 1500 L/ha of spray volume. Plants were inoculated with spores of the fungus the next day, then incubated in an environment conducive to disease development. Disease severity was evaluated 4 to 19 days later, depending on the speed of disease development. […] Each pot contained 3-8 seedlings. These plants were sprayed until wet with the formulated test compound at a rate of 200 ppm. On the following day, the leaves were inoculated with an aqueous spore suspension of Cochliobolus sativus and the plants were kept in high humidity for one to two days to permit spores to germinate and infect the leaf. The plants were then transferred to a greenhouse until disease developed on untreated control plants. The following table presents the activity of typical compounds of the present invention when evaluated in these experiments. The effectiveness of the test compounds in controlling disease was determined by assessing the severity of disease on treated plants, then converting the severity to percent control based on the level of disease on untreated, inoculated plants.

The test system of another data set is Colletotricum lagenarium. The data set is described as follows: Cucumber Anthracnose 1-day protectant test (COLLLA). Type of data set: in vivo. To be noted: Cucumis sativus, topical, 24 h; one-day protectant test, 200 ppm application rate, cucumber plants (variety Bush Champion); read-out: COLLLA control of disease. The method, then:
The technical compounds were formulated at 200 ppm in 10 vol. acetone plus 90 vol. Triton X water (deionized water 99.99 wt. % +0.01 wt. Triton X100), giving a “formulated test compound.” The compounds were tested for ability to control plant diseases at the whole plant level in a 1-day protectant test (IDP). Formulated test compounds were applied to plants using a turn table sprayer fitted with two opposing air atomization nozzles which delivered approximately 1500 L/ha of spray volume. Plants were inoculated with spores of the fungus the next day, then incubated in an environment conducive to disease development. Disease severity was evaluated 4 to 19 days later, depending on the speed of disease development. Cucumber Anthracnose (causal agent Colletotricum lagenarium; Bayer code COLLLA): Cucumber plants (variety Bush Champion) were grown from seed in a soilless peat-based potting mixture (Metromix) until the first true leaf was 20-80% expanded. Each pot contained 1 seedling. These plants were sprayed until wet with the formulated test compound at a rate of 200 ppm. On the following day, the leaves were inoculated with an aqueous spore suspension of Colletotricum lagenarium and the plants were kept in high humidity for one day to permit spores to germinate and infect the leaf. The plants were then transferred to a growth chamber until disease developed on untreated control plants. The following table presents the activity of typical compounds of the present invention when evaluated in these experiments. The effectiveness of the test compounds in controlling disease was determined by assessing the severity of disease on treated plants, then converting the severity to percent control based on the level of disease on untreated, inoculated plants.

The subject of a further data set is Leptosphaeria nodorum. The data set is described as follows: Glume Blotch of Wheat 1-day protectant test (LEPTNO). Format: in vivo. Particulars: Parastagonospora nodorum, topical, 24 h; one-day protectant test, 200 ppm application rate, wheat plants (variety Yuma); read-out: LEPTINO control of disease. As to the method:
The technical compounds were formulated at 200 ppm in 10 vol. acetone plus 90 vol. Triton X water (deionized water 99.99 wt. % +0.01 wt. Triton X100), giving a “formulated test compound.” The compounds were tested for ability to control plant diseases at the whole plant level in a 1-day protectant test (IDP). Formulated test compounds were applied to plants using a turn table sprayer fitted with two opposing air atomization nozzles which delivered approximately 1500 L/ha of spray volume. Plants were inoculated with spores of the fungus the next day, then incubated in an environment conducive to disease development. Disease severity was evaluated 4 to 19 days later, depending on the speed of disease development. Glume Blotch of Wheat (causal agent Leptosphaeria nodorum=Stagnospora nodorum; Bayer code […]): Wheat plants (variety Yuma) were grown from seed in a 50% pasteurized soil/50% soil-less mix until the seedlings had fully expanded first leaf. Each pot contains 3-20 seedlings. These plants were sprayed until wet with the formulated test compound at a rate of 200 ppm. On the following day, the leaves were inoculated with an aqueous spore suspension of Leptosphaeria nodorum and the plants were kept in high humidity (one day in a dark dew chamber followed by four to seven days in a lighted dew chamber) to permit spores to germinate and infect the leaf. The plants were then transferred to a greenhouse until disease developed on untreated control plants. The following table presents the activity of typical compounds of the present invention when evaluated in these experiments. The effectiveness of the test compounds in controlling disease was determined by assessing the severity of disease on treated plants, then converting the severity to percent control based on the level of disease on untreated, inoculated plants.

In the next data set the test system is Puccinia triticina. The data set is described as follows: Leaf Rust of Wheat 1-day protectant test (PUCCRT). Type of data set: in vivo. Particulars: topical, 24 h, one-day protectant test, 200 ppm application rate, wheat plants (variety Yuma), read-out: PUCCRT control of disease. The method, then: The technical compounds were formulated at 200 ppm in 10 vol. acetone plus 90 vol. Triton X water (deionized water 99.99 wt. % +0.01 wt. Triton X100), giving a “formulated test compound.” The compounds were tested for ability to control plant diseases at the whole plant level in a 1-day protectant test (IDP). Formulated test compounds were applied to plants using a turn table sprayer fitted with two opposing air atomization nozzles which delivered approximately 1500 L/ha of spray volume. Plants were inoculated with spores of the fungus the next day, then incubated in an environment conducive to disease development. Disease severity was evaluated 4 to 19 days later, depending on the speed of disease development. […] Each pot contained 3-8 seedlings. These plants were sprayed until wet with the formulated test compounds at a rate of 200 ppm. On the following day, the leaves were inoculated with an aqueous spore suspension of Puccinia triticina and the plants were kept in high humidity overnight to permit spores to germinate and infect the leaf. The plants were then transferred to a greenhouse until disease developed on untreated control plants. The following table presents the activity of typical compounds of the present invention when evaluated in these experiments. The effectiveness of the test compounds in controlling disease was determined by assessing the severity of disease on treated plants, then converting the severity to percent control based on the level of disease on untreated, inoculated plants.

Another data set concerns Pyricularia oryzae. Description: whole plant or invertebrate. Format: in vivo. To be noted: topical, 24 h, read-out: PYRIOR control of disease.
Another data set relates to Septoria tritici. The data set is described as follows: Speckled Leaf Blotch of Wheat 1-day protectant test (SEPTTR). Type of data set: in vivo. Particulars: Zymoseptoria tritici, topical, 24 h; one-day protectant test, 200 ppm application rate, wheat plants (variety Monon); read-out: SEPTTR control of disease. The method, then:
The technical compounds were formulated at 200 ppm in 10 vol. acetone plus 90 vol. Triton X water (deionized water 99.99 wt. % +0.01 wt. Triton X100), giving a “formulated test compound.” The compounds were tested for ability to control plant diseases at the whole plant level in a 1-day protectant test (IDP). Formulated test compounds were applied to plants using a turn table sprayer fitted with two opposing air atomization nozzles which delivered approximately 1500 L/ha of spray volume. Plants were inoculated with spores of the fungus the next day, then incubated in an environment conducive to disease development. Disease severity was evaluated 4 to 19 days later, depending on the speed of disease development. Speckled Leaf Blotch of Wheat (Mycosphaerella graminicola=Septoria tritici; Bayer code […]): Wheat plants (variety Monon) were grown from seed in a greenhouse in 50% pasteurized soil/50% soil-less mix until the first true leaf was fully expanded, with 3-8 seedlings per pot. These plants were sprayed until wet with the formulated test compound at a rate of 200 ppm. On the following day, the leaves were inoculated with an aqueous spore suspension of Septoria tritici and the plants were kept in high humidity (one day in a dark dew chamber followed by four to seven days in a lighted dew chamber) to permit spores to germinate and infect the leaf. The plants were then transferred to a greenhouse until disease developed on untreated control plants. The following table presents the activity of typical compounds of the present invention when evaluated in these experiments. The effectiveness of the test compounds in controlling disease was determined by assessing the severity of disease on treated plants, then converting the severity to percent control based on the level of disease on untreated, inoculated plants.

Take `COCC(C)Nc1cc(-c2ncnc(Nc3cccc(Cl)c3)n2)ccn1` (centres unmarked) [Compound 1, N-(3-chlorophenyl)-4-{2-[(2-methoxy-1-methylethyl)amino]pyridin-4-yl}-1,3,5-triazin-2-amine]: the melting point fell in the range of 149 to 151 °C. Also, in the data set on Cochliobolus sativus, the pest or weed control at 200 ppm lay in the range of 90 to 100%. Moreover, the pest or weed control at 200 ppm with Colletotricum lagenarium was 90 to 100%. In the data set with Leptosphaeria nodorum, the pest or weed control at 200 ppm is 90 to 100%. The pest or weed control at 200 ppm in the data set on Puccinia triticina was in the range of 90 to 100%. Further, the pest or weed control at 200 ppm in the data set on Pyricularia oryzae fell in the range of 90 to 100%. The pest or weed control at 200 ppm in the data set with Septoria tritici lay in the range of 50 to 89%.

`COC[C@H](C)Nc1cc(-c2ncnc(Nc3cccc(Cl)c3)n2)ccn1` [Compound 2, N-(3-chlorophenyl)-4-(2-{[(1S)-2-methoxy-1-methylethyl]amino}pyridin-4-yl)-1,3,5-triazin-2-amine] returned a melting point of 152 to 156 °C. For the same molecule, the pest or weed control at 200 ppm in the data set with Cochliobolus sativus was in the range of 90 to 100%. In addition, the pest or weed control at 200 ppm in the data set on Colletotricum lagenarium is 90 to 100%. For the same molecule, the pest or weed control at 200 ppm in the data set on Leptosphaeria nodorum was 90 to 100%. In addition, the pest or weed control at 200 ppm in the data set on Puccinia triticina fell in the range of 90 to 100%. Further, the pest or weed control at 200 ppm with Pyricularia oryzae lay within 90 to 100%. Besides, the pest or weed control at 200 ppm in the data set with Septoria tritici fell in the range of 90 to 100%.

With `COCC(C)Nc1cc(-c2ncnc(Nc3ccccc3Cl)n2)ccn1` (centres unmarked) [Compound 3, N-(2-chlorophenyl)-4-{2-[(2-methoxy-1-methylethyl)amino]pyridin-4-yl}-1,3,5-triazin-2-amine], the melting point was in the range of 139 to 140 °C. In addition, the pest or weed control at 200 ppm in the data set with Cochliobolus sativus was 90 to 100%. Moreover, the pest or weed control at 200 ppm in the data set with Colletotricum lagenarium was less than 20%. In addition, the pest or weed control at 200 ppm in the data set with Leptosphaeria nodorum lay within 21 to 49%. In addition, in the data set with Puccinia triticina, the pest or weed control at 200 ppm fell in the range of 50 to 89%. Further, in the data set on Pyricularia oryzae, the pest or weed control at 200 ppm is 50 to 89%. In addition, the pest or weed control at 200 ppm with Septoria tritici was 21 to 49%.

Turning to `COCC(C)Nc1cc(-c2ncnc(Nc3ccc(Cl)cc3)n2)ccn1` (centres unmarked) [Compound 4, N-(4-chlorophenyl)-4-{2-[(2-methoxy-1-methylethyl)amino]pyridin-4-yl}-1,3,5-triazin-2-amine], the melting point lay within 198 to 200 °C. Further, in the data set with Cochliobolus sativus, the pest or weed control at 200 ppm is 50 to 89%. Besides, in the data set with Colletotricum lagenarium, the pest or weed control at 200 ppm was less than 20%. In the data set with Leptosphaeria nodorum, the pest or weed control at 200 ppm was 50 to 89%. The pest or weed control at 200 ppm in the data set on Puccinia triticina was 50 to 89%. Besides, the pest or weed control at 200 ppm in the data set on Pyricularia oryzae was less than 20%. Besides, the pest or weed control at 200 ppm with Septoria tritici is 50 to 89%.

For `CC(C)(C)Nc1cc(-c2ncnc(Nc3cccc(Cl)c3)n2)ccn1` [Compound 5, 4-[2-(tert-butylamino)pyridin-4-yl]-N-(3-chlorophenyl)-1,3,5-triazin-2-amine], the pest or weed control at 200 ppm with Cochliobolus sativus was in the range of 90 to 100%; with Colletotricum lagenarium, 50 to 89%; in the data set with Leptosphaeria nodorum, 50 to 89%; with Puccinia triticina, 90 to 100%; in the data set on Pyricularia oryzae it was 90 to 100%; in the data set with Septoria tritici it was 90 to 100%.

Consider `CC(COCc1ccccc1)Nc1cc(-c2ncnc(Nc3cccc(Cl)c3)n2)ccn1` (centres unmarked) [Compound 6, N-(3-chlorophenyl)-4-{2-[(2-(benzyloxy)-1-methylethyl)amino]pyridin-4-yl}-1,3,5-triazin-2-amine], for which the melting point lay in the range of 79 to 80 °C. In addition, in the data set on Cochliobolus sativus, the pest or weed control at 200 ppm lay in the range of 50 to 89%. In the data set with Colletotricum lagenarium, the pest or weed control at 200 ppm was less than 20%. In addition, the pest or weed control at 200 ppm in the data set on Leptosphaeria nodorum lay in the range of 50 to 89%. In addition, the pest or weed control at 200 ppm in the data set on Puccinia triticina lay in the range of 90 to 100%. The pest or weed control at 200 ppm in the data set on Pyricularia oryzae is less than 20%. Also, the pest or weed control at 200 ppm in the data set on Septoria tritici lay in the range of 90 to 100%.

On to `Clc1ccc(Nc2ncnc(-c3ccnc(N4CCCCC4)c3)n2)cc1` [Compound 8, N-(4-chlorophenyl)-4-(2-piperidin-1-ylpyridin-4-yl)-1,3,5-triazin-2-amine], for which the pest or weed control at 200 ppm in the data set with Cochliobolus sativus was less than 20%; with Colletotricum lagenarium it was less than 20%; with Leptosphaeria nodorum, 50 to 89%; in the data set with Puccinia triticina, less than 20%; in the data set with Pyricularia oryzae, less than 20%; with Septoria tritici it was 50 to 89%.

Take `CC1COC(=O)N1c1cc(-c2ncnc(Nc3cccc(Cl)c3)n2)ccn1` (centres unmarked) [Compound 9]: the pest or weed control at 200 ppm in the data set with Cochliobolus sativus is 90 to 100%; in the data set on Colletotricum lagenarium it was 21 to 49%; in the data set with Leptosphaeria nodorum it was 50 to 89%; in the data set with Puccinia triticina, 90 to 100%; with Pyricularia oryzae, 90 to 100%; in the data set with Septoria tritici, 50 to 89%.

By melting point is commonly meant the temperature, or range, at which the solid turns liquid.
